“And” between values parts separate entries of the source, which are not always exact repeats. Identical values can stand only once.
Columns and labels:
[1] = Cell viability assay (MTT) on normal cells; format: cell-based; conditions: human, MCF-10A normal mammary gland epithelial cells, 4 days incubation
Procedure: (§1) This experiment examines the impact of the newly developed compounds 9–29 on normal cell lines to assess their safety level. The vitality of the investigated compounds was assessed using the MCF-10 A cell line, a normal human mammary gland epithelial cell line. Following 4 days of incubation on MCF-10 A cells with each examined compound at a concentration of 50 μM, the vitality of the cells was assessed using the MTT test ([Mahmoud et al., 2022]; [Mekheimer et al., 2022]).
as §1, with “The viability” for “The vitality”, “of 9–29” for “of the investigated compounds”, “2022]). Refer to Supplementary Material A1 for more details. […]” for “2022]).”
4.2. Biological evaluation
4.2.1. Cytotoxic activity using MTT Assay and evaluation of IC50
MTT assay was carried out to study the effect of compounds on mammary epithelial cells (MCF-10A). The medium in which cells were propagated contained Dulbecco's modified Eagle's medium (DMEM)/ Ham's F-12 medium (1:1) supplemented with epidermal growth factor (20 ng/mL), hydrocortisone (500 ng/mL), insulin (10 μg/mL), 2 mM glutamine and 10% foetal calf serum.
After every 2-3 days, the cells were passaged using trypsin ethylenediamine tetra acetic acid (EDTA). The cells were seeded at a density of 10^4 cells mL-1 in flat-bottomed culture plates containing 96 wells each. After 24 h, medium was removed from the plates and the compounds in (in 0.1% DMSO) were added (in 200 μL medium to yield a final concentration of 0.1% v/v) to the wells of plates. A single compound was designated with four wells followed by incubation of plates for 96h at 37°C. After incubation, medium was removed completely from the plates followed by addition of MTT (0.4 mg/mL in medium) to each well and subsequent incubation of plates for 3h. MTT (along with the medium) was removed and DMSO (150μL) was added to each well of the culture plates, followed by vertexing and subsequent measurement of absorbance (at 540 nm) using microplate reader. The data are shown as percentage inhibition of proliferation in comparison with controls containing 0.1% DMSO. […]

EGFR = molecular target: T1, EGFR (Homo sapiens, UniProt P00533); experiment: EGFR-TK inhibitory assay; format: biochemical; conditions: read-out: EGFR inhibition IC50 ± SEM
T1 construct: amino acids 645–1186; His6 (N); made in house; host or cells: Sf-9 insect cells (baculovirus; pBlueBacHis2B / pFASTBacHTc)
T1 sequence (P00533 669-1210): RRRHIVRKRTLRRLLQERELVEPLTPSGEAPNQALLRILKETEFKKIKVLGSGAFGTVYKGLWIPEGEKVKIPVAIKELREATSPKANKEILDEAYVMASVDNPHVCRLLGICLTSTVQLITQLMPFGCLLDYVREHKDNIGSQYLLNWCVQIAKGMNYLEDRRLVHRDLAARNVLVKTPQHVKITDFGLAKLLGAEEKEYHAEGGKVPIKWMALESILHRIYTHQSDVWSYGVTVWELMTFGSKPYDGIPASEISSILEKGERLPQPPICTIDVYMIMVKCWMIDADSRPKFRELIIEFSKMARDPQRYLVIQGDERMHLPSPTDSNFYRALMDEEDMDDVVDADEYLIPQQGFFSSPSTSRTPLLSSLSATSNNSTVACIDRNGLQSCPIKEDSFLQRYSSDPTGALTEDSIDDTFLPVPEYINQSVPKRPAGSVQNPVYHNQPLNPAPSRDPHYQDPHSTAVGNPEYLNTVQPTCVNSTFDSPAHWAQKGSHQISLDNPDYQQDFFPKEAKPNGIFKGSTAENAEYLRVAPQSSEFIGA

[2] = Experimental lipophilicity by RP-TLC; format: physicochemical; conditions: for Experimental lipophilicity Co: concentration of MeOH at RM = 0, in % (unit assumed)
Source text: The RP-TLC method was used to measure the lipophilicity parameters (RMo, b, and Co) described in the experimental section. The mobile phase consisted of different proportions of water and organic modifier (MeOH). RF and RM values were obtained for each ratio of organic modifier/water system (Supplementary Table S3), and a linear regression analysis was achieved to obtain the lipophilicity chromatographic descriptors (RMo, b, and Co, see Table 6). Relative lipophilicity (RMo) describes the partitioning of the solute between pure water and nonpolar stationary phase. In contrast, the second lipophilicity parameter (Co) represents the concentration of organic modifier in the mobile phase in which the solute is equally distributed between two phases (i.e., RM = 0, and Rf = 0.5). Also, Co is known to be widely used in QSAR analysis as it embraces both the specific hydrophobic surface area of the solute and RMo. […] Finally, the slope of the regression line (b) was used as a descriptor of the specific hydrophobic surface area of the compound. In a series of structurally related compounds, b is linearly correlated with RMo, resulting in a linear relationship that is the basic feature of the chromatographic determination of lipophilicity. […] Moreover, substituents affected tested compounds’ measured lipophilicity parameter (RMo) values. Higher RMo values were found with lipophilic derivatives containing the benzyl group (14, 22, and 28), while lower RMo values were found with derivatives containing alkyl or allyl groups (19, 26, and 27). An interesting contradiction was found with experimental lipophilicity value of 28 and its congener 14, where compound 28 was found more lipophilic than its congener 14 even though it contains two methoxy groups and according to ChemDraw® and MolSoft® programs, derivative 14 should be more lipophilic while the MOE® program expects values matching our findings. […] Also, S-allyl derivatives were nearly equipotent to S-alkyl congeners as antiproliferative agents but quite different in terms of lipophilicity.

VEGFR-2 = VEGFR-2 (Homo sapiens, UniProt P35968); experiment: VEGFR-2 inhibitory assay
Chain of VEGFR-2 (P35968 20-1356): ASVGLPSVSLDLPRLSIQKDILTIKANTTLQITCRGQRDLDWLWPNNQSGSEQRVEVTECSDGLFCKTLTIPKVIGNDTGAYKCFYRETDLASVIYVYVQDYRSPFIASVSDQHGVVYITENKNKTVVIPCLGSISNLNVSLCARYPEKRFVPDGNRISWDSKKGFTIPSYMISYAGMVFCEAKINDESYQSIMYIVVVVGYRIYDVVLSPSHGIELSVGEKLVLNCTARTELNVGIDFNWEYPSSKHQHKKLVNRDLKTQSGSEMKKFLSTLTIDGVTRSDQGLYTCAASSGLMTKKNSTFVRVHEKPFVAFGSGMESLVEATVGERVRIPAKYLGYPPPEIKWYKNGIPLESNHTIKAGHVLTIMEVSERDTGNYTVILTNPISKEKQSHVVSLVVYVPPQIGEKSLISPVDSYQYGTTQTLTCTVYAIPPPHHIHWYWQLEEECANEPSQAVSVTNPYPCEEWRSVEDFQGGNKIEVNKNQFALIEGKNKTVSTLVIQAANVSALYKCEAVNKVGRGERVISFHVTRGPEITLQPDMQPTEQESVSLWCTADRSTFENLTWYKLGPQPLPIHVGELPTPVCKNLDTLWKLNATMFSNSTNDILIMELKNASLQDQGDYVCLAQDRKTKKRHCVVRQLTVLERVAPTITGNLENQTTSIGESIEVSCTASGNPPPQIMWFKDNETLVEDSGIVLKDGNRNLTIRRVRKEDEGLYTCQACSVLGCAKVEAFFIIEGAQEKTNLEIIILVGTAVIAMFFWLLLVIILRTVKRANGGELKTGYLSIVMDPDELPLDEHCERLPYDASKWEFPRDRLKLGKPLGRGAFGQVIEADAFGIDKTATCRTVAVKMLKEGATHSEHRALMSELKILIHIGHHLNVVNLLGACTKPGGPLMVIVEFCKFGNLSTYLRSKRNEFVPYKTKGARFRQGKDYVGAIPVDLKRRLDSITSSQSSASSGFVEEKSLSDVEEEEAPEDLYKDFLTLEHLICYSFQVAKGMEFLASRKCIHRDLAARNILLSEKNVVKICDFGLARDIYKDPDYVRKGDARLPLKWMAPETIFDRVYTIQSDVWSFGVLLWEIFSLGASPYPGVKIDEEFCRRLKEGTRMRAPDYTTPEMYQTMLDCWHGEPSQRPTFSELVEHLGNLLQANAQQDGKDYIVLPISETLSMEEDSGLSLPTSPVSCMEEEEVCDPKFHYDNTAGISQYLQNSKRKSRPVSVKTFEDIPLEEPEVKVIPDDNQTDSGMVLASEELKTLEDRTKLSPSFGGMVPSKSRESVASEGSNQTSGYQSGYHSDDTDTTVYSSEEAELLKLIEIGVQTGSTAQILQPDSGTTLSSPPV

Bax = Bax activation assay; format: cell-based, human; conditions: for Bax Conc: A-549 cancer cells
Procedure: 4.2.7. Bax activation assay
Bring all reagents, except the human Bax-α Standard, to room temperature for at least 30 minutes prior to opening. The human Bax-α Standard solution should not be left at room temperature for more than 10 minutes. All standards, controls and samples should be run in duplicate. Refer to the Assay Layout Sheet to determine the number of wells to be used and put any remaining wells with the desiccant back into the pouch and seal the ziploc. Store unused wells at 4 °C. Pipet 100 μL of Assay Buffer into the S0 (0 pg/mL standard) wells. Pipet 100 μL of Standards #1 through #6 into the appropriate wells. Pipet 100 μL of the Samples into the appropriate wells. Tap the plate gently to mix the contents. Seal the plate and incubate at room temperature on a plate shaker for 1 hour at ~500 rpm. Empty the contents of the wells and wash by adding 400 μL of wash solution to every well. Repeat the wash 4 more times for a total of 5 washes. After the final wash, empty or aspirate the wells and firmly tap the plate on a lint free paper towel to remove any remaining wash buffer.
Pipet 100 μL of yellow Antibody into each well, except the Blank. Seal the plate and incubate at room temperature on a plate shaker for 1 hour at ~500 rpm. Empty the contents of the wells and wash by adding 400 μL of wash solution to every well. Repeat the wash 4 more times for a total of 5 washes. After the final wash, empty or aspirate the wells and firmly tap the plate on a lint free paper towel to remove any remaining wash buffer. Add 100 μL of blue Conjugate to each well, except the Blank. Seal the plate and incubate at room temperature on a plate shaker for 30 minutes […]
Pipet 100 μL of Substrate Solution into each well. Incubate for 30 minutes at room temperature on a plate shaker at ~500 rpm. Pipet 100 μL Stop Solution to each well. Blank the plate reader against the Blank wells, read the optical density at 450 nm. Calculate the average net Optical Density (OD) bound for each standard and sample by subtracting the average Blank OD from the average OD for each standard and sample. Using linear graph paper, plot the Average Net OD for each standard versus Bax concentration in each standard. Approximate a straight line through the points.
The concentration of Bax in the unknowns can be determined by interpolation. […]

Question: Which viability at 4 days, 50 µM [1] does the source give for `COc1ccc(-c2cc(-c3ccc(Cl)cc3)nc(SC)n2)cc1` [Compound 9, 4-(4-Chlorophenyl)-6-(4-methoxyphenyl)-2-(methylthio)pyrimidine] here?
Answer: 91%

Question: Which viability at 4 days, 50 µM [1] does the source give for `CCSc1nc(-c2ccc(Cl)cc2)cc(-c2ccc(OC)cc2)n1` [Compound 10, 4-(4-Chlorophenyl)-2-(ethylthio)-6-(4-methoxyphenyl)pyrimidine] here?
Answer: 90%

Question: For `CCCSc1nc(-c2ccc(Cl)cc2)cc(-c2ccc(OC)cc2)n1` [Compound 11, 4-(4-Chlorophenyl)-6-(4-methoxyphenyl)-2-(propylthio)pyrimidine], which viability at 4 days, 50 µM [1] is on record?
Answer: 89%

Question: With `COc1ccc(-c2cc(-c3ccc(Cl)cc3)nc(SC(C)C)n2)cc1` [Compound 12, 4-(4-Chlorophenyl)-2-(isopropylthio)-6-(4-methoxyphenyl)pyrimidine] as the molecule, how does the viability at 4 days, 50 µM [1] read?
Answer: 89%

Question: With `C=CCSc1nc(-c2ccc(Cl)cc2)cc(-c2ccc(OC)cc2)n1` [Compound 13, 2-(Allylthio)-4-(4-chlorophenyl)-6-(4-methoxyphenyl)pyrimidine] as the molecule, how does the viability at 4 days, 50 µM [1] read?
Answer: 90%

Question: Which results are given for `COc1ccc(-c2cc(-c3ccc(Cl)cc3)nc(SCc3ccccc3)n2)cc1` [Compound 14, 2-(Benzylthio)-4-(4-chlorophenyl)-6-(4-methoxyphenyl)pyrimidine]?
Answer: IC50 (EGFR): 90 ± 7 nM; Experimental lipophilicity RMo ([2]; MeOH/water mobile phase): 7.024 ± 0.05913; Experimental lipophilicity b (slope) ([2]; MeOH/water mobile phase): -0.074 ± 0.00066; Experimental lipophilicity Co [2]: 91.3417; IC50 (VEGFR-2): 2.2 ± 0.02 nM; viability at 4 days, 50 µM [1]: 90%

Question: With `COc1ccc(CSc2nc(-c3ccc(Cl)cc3)cc(-c3ccc(OC)cc3)n2)cc1` [Compound 15, 2-(4-Methoxybenzylthio)-4-(4-chlorophenyl)-6-(4-methoxyphenyl)pyrimidine] as the molecule, how does the viability at 4 days, 50 µM [1] read?
Answer: 91%

Question: Which viability at 4 days, 50 µM [1] does the source give for `COc1ccc(-c2cc(-c3cccc(OC)c3)nc(SC)n2)cc1` [Compound 16, 6-(3-Methoxyphenyl)-4-(4-methoxyphenyl)-2-(methylthio)pyrimidine] here?
Answer: 92%

Question: With `CCSc1nc(-c2ccc(OC)cc2)cc(-c2cccc(OC)c2)n1` [Compound 17, 2-(Ethylthio)-6-(3-methoxyphenyl)-4-(4-methoxyphenyl)pyrimidine] as the molecule, how does the IC50 (EGFR) read?
Answer: 87 ± 6 nM

Question: What about the IC50 (VEGFR-2) of the same molecule?
Answer: 1.85 ± 0.01 nM

Question: And the viability at 4 days, 50 µM [1]?
Answer: 90%

Question: For `CCCSc1nc(-c2ccc(OC)cc2)cc(-c2cccc(OC)c2)n1` [Compound 18, 6-(3-Methoxyphenyl)-4-(4-methoxyphenyl)-2-(propylthio)pyrimidine], which viability at 4 days, 50 µM [1] is on record?
Answer: 87%

Question: Which results are given for `COc1ccc(-c2cc(-c3cccc(OC)c3)nc(SC(C)C)n2)cc1` [Compound 19, 2-(Isopropylthio)-6-(3-methoxyphenyl)-4-(4-methoxyphenyl)pyrimidine]?
Answer: IC50 (EGFR): 83 ± 6 nM; Experimental lipophilicity RMo ([2]; MeOH/water mobile phase): 7.02; Experimental lipophilicity Co [2]: 87.6579 and 91.32; IC50 (VEGFR-2): 2.7 ± 0.02 nM; viability at 4 days, 50 µM [1]: 90%

Question: Which viability at 4 days, 50 µM [1] does the source give for `C=CCSc1nc(-c2ccc(OC)cc2)cc(-c2cccc(OC)c2)n1` [Compound 20, 2-(Allylthio)-6-(3-methoxyphenyl)-4-(4-methoxyphenyl)pyrimidine] here?
Answer: 90%

Question: Which “Bax Conc” value (Bax) does the source give for `COc1ccc(CSc2nc(-c3ccc(OC)cc3)cc(-c3cccc(OC)c3)n2)cc1` [Compound 22, 2-(4-Methoxybenzylthio)-6-(3-methoxyphenyl)-4-(4-methoxyphenyl)pyrimidine] here?
Answer: 294 pg/mL and 294 ± 6 pg/mL

Question: What about the “Experimental lipophilicity RMo” value ([2]; MeOH/water mobile phase) of the same molecule?
Answer: 6.449 ± 0.05873 and 6.24

Question: And the “Experimental lipophilicity Co” value [2]?
Answer: 90.6598 and 87.7

Question: What about the IC50 (VEGFR-2) of the same molecule?
Answer: 1.15 ± 0.01 nM

Question: And the viability at 4 days, 50 µM [1]?
Answer: 89%

Question: With `COc1ccc(-c2cc(-c3ccc(Cl)cc3)nc(SC)n2)cc1OC` [Compound 23, 4-(4-Chlorophenyl)-6-(3,4-dimethoxyphenyl)-2-(methylthio)pyrimidine] as the molecule, how does the viability at 4 days, 50 µM [1] read?
Answer: 90%

Question: Which viability at 4 days, 50 µM [1] does the source give for `CCSc1nc(-c2ccc(Cl)cc2)cc(-c2ccc(OC)c(OC)c2)n1` [Compound 24, 4-(4-Chlorophenyl)-2-(ethylthio)-6-(3,4-dimethoxyphenyl)pyrimidine] here?
Answer: 91%

Question: With `CCCSc1nc(-c2ccc(Cl)cc2)cc(-c2ccc(OC)c(OC)c2)n1` [Compound 25, 4-(4-Chlorophenyl)-6-(3,4-dimethoxyphenyl)-2-(propylthio)pyrimidine] as the molecule, how does the IC50 (EGFR) read?
Answer: 78 ± 5 nM

Question: What about the IC50 (VEGFR-2) of the same molecule?
Answer: 2.95 ± 0.02 nM

Question: And the viability at 4 days, 50 µM [1]?
Answer: 91%

Question: For `COc1ccc(-c2cc(-c3ccc(Cl)cc3)nc(SC(C)C)n2)cc1OC` [Compound 26, 4-(4-Chlorophenyl)-2-(isopropylthio)-6-(3,4-dimethoxyphenyl)pyrimidine], which “Experimental lipophilicity RMo” value ([2]; MeOH/water mobile phase) is on record?
Answer: 6.45

Question: And the “Experimental lipophilicity Co” value [2]?
Answer: 86.518 and 90.64

Question: What about the viability at 4 days, 50 µM [1] of the same molecule?
Answer: 90%

Question: With `C=CCSc1nc(-c2ccc(Cl)cc2)cc(-c2ccc(OC)c(OC)c2)n1` [Compound 27, 2-(Allylthio)-4-(4-chlorophenyl)-6-(3,4-dimethoxyphenyl)pyrimidine] as the molecule, how does the “Experimental lipophilicity RMo” value ([2]; MeOH/water mobile phase) read?
Answer: 5.79

Question: What about the “Experimental lipophilicity Co” value [2] of the same molecule?
Answer: 87.9561 and 86.52

Question: What about the viability at 4 days, 50 µM [1] of the same molecule?
Answer: 89%

Question: With `COc1ccc(-c2cc(-c3ccc(Cl)cc3)nc(SCc3ccccc3)n2)cc1OC` [Compound 28, 2-(Benzylthio)-4-(4-chlorophenyl)-6-(3,4-dimethoxyphenyl)pyrimidine] as the molecule, how does the “Experimental lipophilicity RMo” value ([2]; MeOH/water mobile phase) read?
Answer: 5.32

Question: What about the “Experimental lipophilicity Co” value [2] of the same molecule?
Answer: 91.4199 and 87.18

Question: What about the viability at 4 days, 50 µM [1] of the same molecule?
Answer: 92%

Question: Which IC50 (EGFR) does the source give for `COc1ccc(CSc2nc(-c3ccc(Cl)cc3)cc(-c3ccc(OC)c(OC)c3)n2)cc1` [Compound 29, 2-(4-Methoxybenzylthio)-4-(4-chlorophenyl)-6-(3,4-dimethoxyphenyl)pyrimidine] here?
Answer: 72 ± 5 nM

Question: What about the “Bax Conc” value (Bax) of the same molecule?
Answer: 278 pg/mL and 278 ± 5 pg/mL

Question: And the “Bax Fold change” value (Bax; compared to untreated A-549 cancer cells)?
Answer: 35 fold

Question: What about the IC50 (VEGFR-2) of the same molecule?
Answer: 1.6 ± 0.01 nM

Question: And the viability at 4 days, 50 µM [1]?
Answer: 91%
